Values joined by “and” are separate entries in the source; they are usually repeats but may differ in a detail not shown here. Equal values may be shown once.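 Method: 48-hour compound exposure of cells in 96-well plates, five concentrations, linear interpolation of endpoints. At the GI50, growth is halved. The concentration for full growth arrest is given as TGI.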 A value given as a limit tells only on which side of the number the result lay.

Among the test systems are SK-MEL-5 melanoma; EKVX NSCLC; SK-OV-3 ovarian; TK-10 renal; IGROV1 ovarian; SF-295 CNS; OVCAR-3 ovarian; A498 renal; SK-MEL-28 melanoma; M14 melanoma.
Test in all cases: inhibition of tumour cell growth, NCI panel, 48 h

On to `CC(=O)NC1C(OC[C@@H](CC(=O)N[C@@H](CC(=O)O)CC(=O)N[C@H](CC(=O)N[C@@H](CCCN)CC(=O)N[C@@H](CCCN)CC(=O)N[C@H](CC(N)=O)C(C)C)C(C)C)NC(=O)C[C@@H](N)C(C)C)OC(CO)C(O)C1O` (stereo not given in full), for which the GI50 in the assay on SK-MEL-5 melanoma, with EKVX NSCLC, in the assay on SK-OV-3 ovarian, with TK-10 renal, with IGROV1 ovarian and in the assay on SF-295 CNS was over 100 µM throughout. Besides, the GI50 with OVCAR-3 ovarian, in the assay on A498 renal, with SK-MEL-28 melanoma and in the assay on M14 melanoma was over 100 µM each time. The TGI with SK-MEL-5 melanoma, in the assay on EKVX NSCLC, in the assay on SK-OV-3 ovarian, in the assay on TK-10 renal, in the assay with IGROV1 ovarian and in the assay on SF-295 CNS was over 100 µM in each case. Moreover, the TGI with OVCAR-3 ovarian, with A498 renal, in the assay with SK-MEL-28 melanoma and in the assay on M14 melanoma was over 100 µM each time.

In the case of `CCN1C(=O)N(CC)C2C1NN=c1s/c(=C\c3cccc(F)c3)c(=O)n12` (stereo not given), the GI50 is 0.131 µM in the assay on SK-MEL-5 melanoma; 0.657 µM in the assay with EKVX NSCLC; 2.59 µM in the assay with SK-OV-3 ovarian; 27.2 µM in the assay on TK-10 renal; 0.233 µM with IGROV1 ovarian; 0.224 µM with SF-295 CNS. Further, the GI50 in the assay with OVCAR-3 ovarian was 0.17 µM; with A498 renal, under 0.0184 µM; with SK-MEL-28 melanoma it was 13.1 µM; in the assay on M14 melanoma it was 0.0727 µM. In addition, the TGI in the assay with SK-MEL-5 melanoma is 2.33 µM; with EKVX NSCLC, over 100 µM; in the assay on SK-OV-3 ovarian, over 100 µM; in the assay on TK-10 renal, over 100 µM; with IGROV1 ovarian it was over 100 µM; in the assay with SF-295 CNS, over 100 µM. The TGI is over 100 µM in the assay on OVCAR-3 ovarian, 0.184 µM in the assay on A498 renal, over 100 µM in the assay on SK-MEL-28 melanoma and over 100 µM in the assay on M14 melanoma.

Regarding `NC(=O)C(=O)N/N=C1\C(=O)N(c2ccc(Cl)cc2Cl)C(=O)C1C(=O)Nc1ccc(Cl)cc1Cl` (stereo not given), the TGI in the assay on SK-MEL-5 melanoma, with EKVX NSCLC, in the assay with SK-OV-3 ovarian, in the assay with TK-10 renal, in the assay with IGROV1 ovarian and in the assay on SF-295 CNS was over 100 µM throughout. In addition, the TGI in the assay with OVCAR-3 ovarian, with A498 renal, with SK-MEL-28 melanoma and with M14 melanoma was over 100 µM in each case.

For the compound `O=C(NCCCCNc1cccccc1=O)OCc1ccccc1`, the TGI in the assay with SK-MEL-5 melanoma, in the assay on EKVX NSCLC, in the assay on SK-OV-3 ovarian, in the assay with TK-10 renal, with IGROV1 ovarian and in the assay with SF-295 CNS was over 100 µM each time. The TGI in the assay on OVCAR-3 ovarian, in the assay on A498 renal, with SK-MEL-28 melanoma and in the assay on M14 melanoma was over 100 µM each time.

For the compound `O=C(c1ccccc1)c1ccccc1-c1ccccc1`, the GI50 in the assay on SK-MEL-5 melanoma was 3.2 µM; in the assay with EKVX NSCLC, 4.22 µM; in the assay with SK-OV-3 ovarian, 3.54 µM; in the assay with TK-10 renal, 6.28 µM; in the assay on IGROV1 ovarian it was 3.32 µM; with SF-295 CNS, 1.85 µM. Besides, the GI50 in the assay with OVCAR-3 ovarian was 1.72 µM; in the assay on A498 renal, 2.08 µM; with SK-MEL-28 melanoma, 7.52 µM; in the assay with M14 melanoma it was 1.75 µM. In addition, the TGI is 12.5 µM in the assay on SK-MEL-5 melanoma; over 100 µM in the assay with EKVX NSCLC; 25.2 µM in the assay on SK-OV-3 ovarian; over 100 µM with TK-10 renal; over 100 µM with IGROV1 ovarian; 29 µM in the assay on SF-295 CNS. Moreover, the TGI with OVCAR-3 ovarian was 4.55 µM; in the assay with A498 renal it was 15.6 µM; in the assay with SK-MEL-28 melanoma, over 100 µM; in the assay on M14 melanoma, 13 µM.

Consider `N.N.N.N.[Co+3].[N-]=[N+]=[N-].[N-]=[N+]=[N-].[N-]=[N+]=[N-]`, for which the GI50 in the assay with SK-MEL-5 melanoma, in the assay with EKVX NSCLC, with SK-OV-3 ovarian, in the assay on TK-10 renal, with IGROV1 ovarian and with SF-295 CNS was over 100 µM in each case. Besides, the GI50 in the assay with OVCAR-3 ovarian was over 100 µM; with A498 renal it was over 100 µM; in the assay with SK-MEL-28 melanoma, 47.1 µM; in the assay on M14 melanoma, over 100 µM. The TGI in the assay on SK-MEL-5 melanoma, with EKVX NSCLC, with SK-OV-3 ovarian, in the assay with TK-10 renal, in the assay on IGROV1 ovarian and with SF-295 CNS was over 100 µM in each case. Besides, the TGI in the assay with OVCAR-3 ovarian, with A498 renal, with SK-MEL-28 melanoma and in the assay on M14 melanoma was over 100 µM throughout.

As to `CC[C@@H]1c2c(C#N)ncn2-c2cnc(Nc3ccc(C(=O)NC4CCN(C5CCN(CC6CC6)CC5)CC4)cc3OC)nc2N1C1CCCC1`, the GI50 is 0.13 µM and 0.182 µM in the assay on SK-MEL-5 melanoma; 1.06 µM in the assay on EKVX NSCLC; 0.0384 µM and 0.122 µM with SK-OV-3 ovarian; 1.03 µM in the assay on TK-10 renal; 0.0358 µM in the assay on IGROV1 ovarian; 0.0454 µM with SF-295 CNS. In addition, the GI50 in the assay on OVCAR-3 ovarian is 0.0401 µM; with A498 renal it was 0.174 µM and 0.308 µM; with SK-MEL-28 melanoma, 0.127 µM; in the assay on M14 melanoma, 0.0316 µM. In addition, the TGI is 1.52 µM and 1.68 µM in the assay on SK-MEL-5 melanoma; 2.46 µM in the assay with EKVX NSCLC; 1.04 µM and 1.64 µM with SK-OV-3 ovarian; 2.23 µM in the assay on TK-10 renal; 1.36 µM in the assay on IGROV1 ovarian; 1.94 µM with SF-295 CNS. Besides, the TGI was 1.63 µM in the assay with OVCAR-3 ovarian; 1.17 µM and 1.57 µM with A498 renal; 1.75 µM in the assay on SK-MEL-28 melanoma; 1.35 µM in the assay with M14 melanoma.

Consider `CNC(=O)Nc1nc2ccc([N+](=O)[O-])cc2[nH]1`, for which the TGI with SK-MEL-5 melanoma, with EKVX NSCLC, in the assay on SK-OV-3 ovarian, in the assay on TK-10 renal, in the assay on IGROV1 ovarian and in the assay with SF-295 CNS was over 100 µM throughout. For the same compound, the TGI in the assay with OVCAR-3 ovarian, in the assay with A498 renal, in the assay on SK-MEL-28 melanoma and in the assay with M14 melanoma was over 100 µM each time.

For `C=C(CN1C(=O)CN(C)C1=O)c1ccc(C(=O)Nc2ccccc2N)cc1`, the GI50 is 12.2 µM with SK-MEL-5 melanoma; 82.3 µM in the assay with EKVX NSCLC; 1.64 µM with SK-OV-3 ovarian; 3.44 µM with TK-10 renal; 12.3 µM in the assay on IGROV1 ovarian; 19.5 µM in the assay on SF-295 CNS. For the same compound, the GI50 in the assay on OVCAR-3 ovarian was 24.8 µM; in the assay on A498 renal, 4.3 µM; with SK-MEL-28 melanoma, 15.9 µM; in the assay with M14 melanoma it was 29.8 µM. Further, the TGI in the assay on SK-MEL-5 melanoma was 32.8 µM; in the assay with EKVX NSCLC it was over 100 µM; in the assay with SK-OV-3 ovarian it was 9.96 µM; in the assay on TK-10 renal it was 31.5 µM; with IGROV1 ovarian it was over 100 µM; in the assay with SF-295 CNS, over 100 µM. The TGI in the assay on OVCAR-3 ovarian was over 100 µM; in the assay on A498 renal it was 31.2 µM; in the assay with SK-MEL-28 melanoma it was 54.8 µM; in the assay on M14 melanoma it was over 100 µM.

Regarding `CCOc1cccc(/C=N/N=C2\C(=O)Nc3c(Cl)cc(Cl)cc32)c1O`, the TGI in the assay on SK-MEL-5 melanoma, in the assay with EKVX NSCLC, in the assay with SK-OV-3 ovarian, with TK-10 renal, with IGROV1 ovarian and in the assay with SF-295 CNS was over 100 µM throughout. Also, the TGI with OVCAR-3 ovarian, with A498 renal, in the assay on SK-MEL-28 melanoma and with M14 melanoma was over 100 µM each time.

For the compound `COc1ccc(C23C(=O)c4ccccc4N2O[C@H]2C(=O)N(c4ccccc4)C(=O)[C@H]23)cc1` (stereo not given in full), the TGI in the assay with SK-MEL-5 melanoma, with EKVX NSCLC, in the assay with SK-OV-3 ovarian, in the assay with TK-10 renal, with IGROV1 ovarian and in the assay with SF-295 CNS was over 100 µM throughout. Further, the TGI in the assay on OVCAR-3 ovarian, with A498 renal, in the assay with SK-MEL-28 melanoma and in the assay with M14 melanoma was over 100 µM in each case.

As for `CN(CCO)CC[C@H](CSc1ccccc1)Nc1ccc(S(=O)(=O)NC(=O)c2ccc(N3CCC([C@@H](O)c4ccccc4-c4ccc(Cl)cc4)CC3)cc2)cc1S(=O)(=O)C(F)(F)F`, the GI50 was 1.69 µM in the assay on SK-MEL-5 melanoma; 20.4 µM in the assay on EKVX NSCLC; 4.98 µM with SK-OV-3 ovarian; 5.2 µM with TK-10 renal; 2.6 µM in the assay with IGROV1 ovarian; 4.23 µM in the assay with SF-295 CNS. Further, the GI50 was 3.71 µM with OVCAR-3 ovarian, 0.0288 µM in the assay on A498 renal, 2.23 µM with SK-MEL-28 melanoma and 3.51 µM in the assay on M14 melanoma. Besides, the TGI with SK-MEL-5 melanoma was 3.25 µM; in the assay with EKVX NSCLC, over 100 µM; with SK-OV-3 ovarian, 20.7 µM; in the assay on TK-10 renal, 19.2 µM; in the assay on IGROV1 ovarian, 6.63 µM; in the assay with SF-295 CNS, 25.3 µM. Besides, the TGI turned out to be 13 µM with OVCAR-3 ovarian, 0.252 µM with A498 renal, 5.11 µM with SK-MEL-28 melanoma and 20.2 µM with M14 melanoma.

The record behind these values is PubChem BioAssay (NCI).
